Source: patent publication US9359422B2, “Single chain relaxin polypeptides” (The University of Queensland, priority 2010, dated 2016)
Entries after “also recorded” stand apart in the source; their conditions may differ. Read-outs that look alike come from different tables or passages of the source. Where no end group is shown, it is not given here.

How the values were obtained:
human RXFP3 [1] = target: T1, human RXFP3 (Homo sapiens, UniProt Q9NSD7); test: RXFP3 competition binding assay with Eu-DTPA-R3/I5; conditions: for binding affinity for RXFP3 (in words): RXFP3-expressing cells, Eu-labelled H3/INSL5 chimeric polypeptide
T1 construct: expressed in transfected cells
T1 sequence (Q9NSD7 1-469): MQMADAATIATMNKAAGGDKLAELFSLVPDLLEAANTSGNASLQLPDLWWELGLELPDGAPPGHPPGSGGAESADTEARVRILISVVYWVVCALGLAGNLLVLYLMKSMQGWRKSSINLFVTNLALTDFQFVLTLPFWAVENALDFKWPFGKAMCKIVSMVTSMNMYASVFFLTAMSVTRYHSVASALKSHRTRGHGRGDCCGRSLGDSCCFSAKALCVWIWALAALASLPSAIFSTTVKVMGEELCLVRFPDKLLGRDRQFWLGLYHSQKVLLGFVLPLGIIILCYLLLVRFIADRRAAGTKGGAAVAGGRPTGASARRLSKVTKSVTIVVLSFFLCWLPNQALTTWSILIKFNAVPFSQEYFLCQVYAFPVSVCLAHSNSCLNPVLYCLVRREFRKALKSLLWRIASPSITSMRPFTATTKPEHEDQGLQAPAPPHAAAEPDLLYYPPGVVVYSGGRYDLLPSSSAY

human RXFP3 [2] = target: T1, human RXFP3; test: cAMP activity assay (pCRE β-galactosidase reporter, forskolin-induced) in CHO cells transfected with RXFP3; assay type: cell-based; conditions: for agonist activity at RXFP3 (inhibition of cAMP activity): RXFP3-expressing cells, 5 μM forskolin; for antagonist activity at RXFP3 (rescue of cAMP levels): in the presence of 10 nM H3 relaxin
Experimental: For activity determination, a cAMP activity assay was used. CHO cells were cultured in a 1:1 mixture of Dulbecco's modified Eagle's medium and HAMNS-F12 medium supplemented with 10% fetal bovine serum, 1% L-glutamine and 1% penicillin/strepicillin and cultivated in a humidified chamber with 5% CO2 at 37.8° C. 20 000 cells per well were seeded into a pre-coated poly-L lysine 96-wells plate. Cells were incubated over night before being transfected with the mammalian expression vector pcDNA3.1(+)zeo (UMR cDAN Resource Center) carrying human RXFP3 together with a pCRE β-galactosidase reporter plasmid using TransIT-CHO, OptiMEM and CHO-MOJO reagents. Cells were then incubated over night in a humidified chamber with 5% CO2 at 37.8° C. before cAMP assays were performed. […] In brief, the cells were incubated with the peptide for 6 h in a humidified chamber before the media was aspirated off and the cells were frozen at −80° C. To develop the results, the cells were lysed by addition of 25 μl buffer A (5 ml 10 mM sodium phosphate buffer, pH 8.0, 1 ml 0.2 mM MgSO4 and 50 μl 0.01 mM MnCl2 in 44 ml H2O) to each well and incubated on a shaker for 10 min at room temperature before addition of 100 μl Buffer B (5 ml 100 mM sodium phosphate buffer, pH 8.0, 1 ml 2 mM MgSO4, 50 μl 0.1 mM MnCl2, 2.5 ml 0.5% Triton X-100 and 0.16 ml 40 mM β-mercaptoethanol in 41.3 ml H2O) followed by a 10 min incubation. The substrate, chlorophenol red-β-D-galactopyranoside (CPRG), was then added to each well and the reaction was left at room temperature until a absorbance of <1 AU at 570 nm was reached.

rats = assay type: in vivo, rat; conditions: 10 μg, 0 to 45 minutes post administration, vs vehicle
Excerpt: The inventors also carried out experiments to determine if the effects may be due to disruption in locomotor skills.

human RXFP1 = target: T2, human RXFP1 (Homo sapiens, UniProt Q9HBX9); test: RXFP1 competition binding assay with Eu-DTPA-H2 relaxin; conditions: HEK-293T cells transfected with RXFP1, Eu-DTPA-H2 relaxin
T2 construct: expressed in transfected cells; host or cells: HEK-293T
T2 sequence (Q9HBX9 1-757): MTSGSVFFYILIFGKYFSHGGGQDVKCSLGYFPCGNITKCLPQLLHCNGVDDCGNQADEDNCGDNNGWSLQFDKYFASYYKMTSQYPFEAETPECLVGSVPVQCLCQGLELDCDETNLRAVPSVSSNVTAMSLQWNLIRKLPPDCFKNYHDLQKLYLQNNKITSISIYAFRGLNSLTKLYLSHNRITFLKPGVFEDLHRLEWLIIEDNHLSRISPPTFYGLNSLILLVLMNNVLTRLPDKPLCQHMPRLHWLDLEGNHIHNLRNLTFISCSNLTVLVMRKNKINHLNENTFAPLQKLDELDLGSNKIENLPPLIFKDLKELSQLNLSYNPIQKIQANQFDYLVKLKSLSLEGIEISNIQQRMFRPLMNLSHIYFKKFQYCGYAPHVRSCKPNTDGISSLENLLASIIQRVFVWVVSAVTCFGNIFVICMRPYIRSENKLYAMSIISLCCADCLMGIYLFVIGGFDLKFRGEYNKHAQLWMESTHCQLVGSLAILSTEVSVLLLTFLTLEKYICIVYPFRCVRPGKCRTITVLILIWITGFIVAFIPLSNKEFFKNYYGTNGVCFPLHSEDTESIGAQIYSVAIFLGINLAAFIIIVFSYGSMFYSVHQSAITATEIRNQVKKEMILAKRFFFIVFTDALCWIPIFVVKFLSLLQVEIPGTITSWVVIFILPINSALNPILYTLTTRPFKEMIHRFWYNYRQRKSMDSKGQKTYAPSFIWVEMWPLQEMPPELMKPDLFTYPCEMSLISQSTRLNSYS
Experimental: Binding assays were carried out as follows. HEK-293T cells stably transfected with human RXFP3 were plated out onto pre-coated poly-L-lysine 96-well viewplates with a density of 50 000 cells per well. Media was aspirated off and the cells were washed with PBS before different concentrations of peptide diluted in binding buffer (100 mM HEPES, pH 7.6, 5 mM KCl, 1.3 mM MgSO4, 1.5 mM NaOAc, 1 mM EDTA and 10 mM glucose) and 300 μM of Eu-DTPA-R3/15 was added to each well. The cells were incubated at room temperature for 60 min before the peptide solution was aspirated off and the cells washed with PBS. DELFIA enhancement solution was then added and the cells incubated for a further 30-60 min at room temperature, after which the fluorescence was measured using a time resolved fluorometer with excitation at 340 nm an emission at 614 nm.
Similarly, the B1-22R single chain polypeptide was tested for its ability to activate RXFP1 or antagonise the action of H2 relaxin at this receptor. To do so, binding assays were carried out essentially as described above in Example 2 except using HEK-293T cells transfected with RXFP1 and 300 μM of Eu-DTPA-H2 relaxin.

[3] = test system: alcohol-preferring (iP) rats; test: Operant alcohol self-administration in alcohol-preferring (iP) rats; assay type: in vivo, rat; conditions: 10% ethanol, FR3, 3 μg, 10 μg or 30 μg via lateral cerebral ventricle cannula, vs normal and vehicle responding
Experimental: Rats were trained to stably administer 10% ethanol during daily operant session (n=18 rats) and then implanted with guide cannulae aimed at the lateral cerebral ventricle. Following a 7 day recovery period, the rats were re-stabilised on alcohol self-administration under fixed-ratio 3 (FR3) conditions and the effect of B1-22R was examined.
Rats were administered 3 μg, 10 μg or 30 μg of the B1-22R antagonist. […] The effect observed was dose-dependent.

RXFP4 = target: T3, RXFP4 (Homo sapiens, UniProt Q8TDU9); test: cAMP activity assay in RXFP4-expressing cells; assay type: cell-based
T3 construct: expressed in transfected cells; host or cells: RXFP4-expressing cells

[4] = HEK-293T cells stably transfected with human RXFP3, Eu-DTPA-R3/I5 tracer, n = 3, read-out: pIC50 (n = 3), binding affinities of single chain relaxin polypeptides for RXFP3 (converted)
[5] = HEK-293T cells stably transfected with human RXFP3, Eu-DTPA-R3/I5 tracer, n = 3

T3 sequence (Q8TDU9 whole entry, species assumed): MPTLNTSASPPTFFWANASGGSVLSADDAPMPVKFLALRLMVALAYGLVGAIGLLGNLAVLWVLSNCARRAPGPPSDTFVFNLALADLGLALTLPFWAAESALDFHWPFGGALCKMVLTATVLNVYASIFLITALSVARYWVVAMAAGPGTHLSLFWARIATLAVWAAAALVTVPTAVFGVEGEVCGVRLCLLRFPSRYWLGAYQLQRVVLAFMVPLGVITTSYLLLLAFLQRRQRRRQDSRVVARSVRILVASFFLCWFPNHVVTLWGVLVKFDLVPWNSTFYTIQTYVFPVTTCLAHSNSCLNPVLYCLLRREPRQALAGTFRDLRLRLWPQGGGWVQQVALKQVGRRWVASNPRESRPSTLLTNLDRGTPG

Row | Substance | IC50 (human RXFP3 [1]; [4]) | agonist activity at RXFP3 (inhibition of cAMP activity) (human RXFP3 [2]) | binding affinity for RXFP3 (in words) (human RXFP3 [1]) | other results
1 | RAAPYGVRLSGREFIRAVIFTSGGSRW-OH [H3 B-chain C10/22S, reference compound] | 2510 nM |  |  | 
2 | H-YGVRLSGREFIRAVIFTSR-NH2 [H3 B5-22R] | 427 nM | failed to show any agonist activity | binding affinities for RXFP3 similar to that of B1-22R | 
3 | H-RAAPYGVRLSGREFIRAVIFTSR-NH2 [H3 B1-22R] |  | no such inhibition |  | locomotor skills (floor plane moves or floor plane distance) (rats): No significant difference; affinity for the RXFP1 receptor (human RXFP1): very poor affinity; antagonist activity at RXFP3 (rescue of cAMP levels) (human RXFP3 [2]): rescued cAMP levels towards 100%; antagonist activity at RXFP3 (rescue of cAMP levels) (human RXFP3 [2]; listed as H1-B22R): greatest antagonist activity; ethanol lever presses [3]: significant decrease in ethanol lever presses; also recorded: dose-dependent; agonist activity at RXFP4 (RXFP4; RXFP4-expressing cells, cAMP): no agonist activity; antagonist activity at RXFP4 (RXFP4; block of INSL5 or H3 relaxin stimulated RXFP4 activation): fails to show any observable antagonist activity; IC50 (human RXFP3 [1]): 17.8 nM
4 | VRLSGREFIRAVIFTSR [H3 B7-22R] |  | failed to show any agonist activity | failed to bind RXFP3 at any detectable level | pIC50 (n = 3), binding affinities of single chain relaxin polypeptides for RXFP3 (human RXFP3 [1]; [5]): No activity
5 | H-RAAPYGVRLAGREFIRAVIFTAR-NH2 [H3 B1-22R C10/22A] | 148 nM | failed to show any agonist activity | binding affinities for RXFP3 similar to that of B1-22R | antagonist activity at RXFP3 (rescue of cAMP levels) (human RXFP3 [2]): lowest antagonist activity
6 | H-APYGVRLSGREFIRAVIFTSR-NH2 [H3 B3-22R] | 195 nM | failed to show any agonist activity | binding affinities for RXFP3 similar to that of B1-22R | 
7 | RAAPYGVRLSGREFIRAVIFTS [H3 B1-22] |  |  | significantly less efficient in binding this receptor | pIC50 (n = 3), binding affinities of single chain relaxin polypeptides for RXFP3 (human RXFP3 [1]; [5]): No activity
8 | H-AAPYGVRLSGREFIRAVIFTSR-NH2 [H3 B2-22R] | 87.1 nM | failed to show any agonist activity | binding affinities for RXFP3 similar to that of B1-22R | 
9 | H-RAAPYGVRLSGREFIRAVIFTSR-OH [H3 B1-22R Acid] | 347 nM | failed to show any agonist activity | binding affinities for RXFP3 similar to that of B1-22R | 
10 | H-PYGVRLSGREFIRAVIFTSR-NH2 [H3 B4-22R] | 219 nM | failed to show any agonist activity | binding affinities for RXFP3 similar to that of B1-22R | 
11 | H-GVRLSGREFIRAVIFTSR-NH2 [H3 B6-22R] | 468 nM | failed to show any agonist activity | binding affinities for RXFP3 similar to that of B1-22R | 
12 | H-RAAPYGVRLSGREFIRAVIFTSGGSRW-OH [H3 B-chain C10/22S, reference compound] |  |  | significantly less efficient in binding this receptor | 
